Results taken from US12466824B2, “Stable polymorphic form of 6-fluoro-9-methyl-9H-β-carboline and uses thereof” (AudioCure Pharma GmbH, priority 2019, dated 2025).
“Also recorded” adds a separate entry of the source.

Columns and labels:
[1] = Polymorph stability in poloxamer-based formulation (XRPD); assay type: physicochemical; details: for conversion of polymorphic form A into polymorphic form B: XRPD
Protocol: In a series of experiments, the polymorph stability has been analyzed. Micronized (≤20 μm) polymorphs A and B were added to phosphate buffer containing a non-ionic tenside as vehicle formulation. […]
2 mL of poloxamer based formulation with 12 mg/ml 6-FMC were cooled to 4° C., vortexed and transferred into a 2 mL Eppendorf vial. The cooled vial was centrifuged for 2 min with a table-centrifuge, the supernatant polymer solution was removed with a pipette and discarded. The remaining 6-FMC was resuspended and vortexed with 1.5 mL of ice cold milli-Q water and centrifuged down as described before. The supernatant water was again removed with a pipette and the washing procedure is repeated 3 times (in total 4 washings). Note: Keep the solution cool to facilitate the centrifugation process. After the last washing, the remaining white 6-FMC is cooled with liquid nitrogen and freeze dried overnight at 100 Pa at room temperature.
After 30 hours in formulation 60% of polymorphic form A is converted into polymorphic form B (see FIG. 10). Keeping the formulation for 48 hours or longer results in 100% conversion of polymorphic form A into polymorphic form B as shown in FIG. 11.

[2] = tested on: noise induced hearing loss model (NIHL) in guinea pigs; test: Noise induced hearing loss (NIHL) guinea pig model, intratympanic application, PTS by BERA; assay type: in vivo; details: single intratympanic 0.12 mg; for level of improvement of the PTS: across investigated frequencies (FIG. 13 / FIG. 14)
Protocol: The effect of an intratympanic administration of polymorph A of 6-FMC (0.12 mg) prepared freshly (less than 24 h before use) on the Permanent Threshold Shift has been investigated in guinea pigs (FIG. 13). The Permanent Threshold Shift (PTS) is defined as the difference between the post-traumatic hearing threshold measured on day 14 and the baseline hearing threshold measured on day −3.
Furthermore, the effect of an intratympanic administration of polymorph B of 6-FMC (0.12 mg) prepared at least 48 h before use, on the PTS in guinea pigs is presented in FIG. 14.
General procedures: All in vivo proof of principle studies were performed in the well-established guinea pig model of NIHL. […] Hearing function was assessed by brain evoked response audiometry (BERA).
Methods: Adult guinea pigs received an intratympanic (i.t.) injection of either 6-FMC formulated in a thermosensitive hydrogel or hydrogel alone. All procedures were performed under anesthesia. BERA was used to measure auditory brainstem responses (ABRs) on day −3 and day 14. The auditory stimuli were sinus tones (10 ms duration at 4, 8, 16 kHz) at 5 dB steps from 0-90 dB. These measurements were used to calculate the PTS. The acoustic trauma was performed on day 0 and consisted of a single continuous band (quarter-octave centered at 8 kHz) at 118 dB SPL for 30 min. Animals were treated 1 h after the end of the acoustic exposure. The round window was visualized under a surgical microscope via a small hole drilled in the bone of the bulla of the left ear. 10 μL of gel containing either 6-FMC or vehicle was injected using a Hamilton syringe and a motorized pump onto the round window membrane (RWM) before the hole was closed with dental cement.
Formulation preparation: a non-ionic tenside based solution is prepared in advance, by dissolving an appropriate amount of the non-ionic tenside in water or in PBS buffer and allowing for an overnight mixing under refrigerated conditions. Once the non-ionic tenside is completely dissolved, osmolality and pH are adjusted if desired. Next the solution is filtered through a 500 μm sieve to remove undissolved gel particles. This concludes compounding of the vehicle. API (Active Pharmaceutical Ingredient) containing formulation is prepared by addition of micronized 6-FMC (≤50 μm) at a concentration of 12 mg/mL. For experiments presented in FIG. 13, 6-FMC formulation was applied directly after being prepared. For experiments in FIG. 14, 6-FMC formulation was prepared at least 48 h prior to animal experiments.

[3] = Polymorph conversion under various thermal conditions (polymorph B to polymorph A), XRPD; assay type: physicochemical
Protocol: 3-1: Polymorph B of 6-FMC was dissolved in n-heptane, the suspension was heated (100° C.) for 1:45 h under stirring. Then the suspension was cooled and stirred at room temperature for 15 hrs. The precipitate was filtered, washed with n-heptane and dried by air.
3-2: Polymorph B of 6-FMC was diluted in toluene and heated up to 95° C. and cooled down to room temperature. The precipitate was filtered, washed with toluene and dried in an air stream.
3-3: A suspension of polymorph B of 6-FMC was diluted in n-heptane and heated up to 110° C. It was kept for 5 hrs 18 min in a flask under reflux conditions, followed by gentle cooling down to room temperature, stirred for 16 hrs. The precipitate was filtered, washed with heptane and dried by air.
3-4: A suspension of polymorph B of 6-FMC was diluted in n-heptane and heated up to 108° C. until the substance was completely diluted. Seed crystals of polymorph A were added to the solution which was gentle cooled down to room temperature. The precipitate was filtered, washed with n-heptane and dried by air.

[4] = Polymorph conversion using supercritical CO2; assay type: physicochemical; details: 60° C., 350 bar (35 MPa), 2.5 h
Protocol: Extraction/polymorph conversion with supercritical CO2 was performed with 500 mg of crude, off-white polymorph B in an ExtrateX Rapid Expansion of a Supercritical Solution (REES) system. The extraction vessel was heated to 60° C. with a pressure of 350 bar. The nozzle was a stainless-steel capillary 5 cm length, inner diameter 0.25 mm at 70° C. The expansion vessel was heated to 40° C. at 1-5 Mpa. Equilibration time: 2.5 h; spraying-time: 15 min.
The cylinder of the apparatus in which the supercritical CO2 had been introduced was loaded with polymorph B (FIG. 9A) and heated to 60° C. and a pressure of 35 MPa. The time amounted to 2.5 hrs during which the API dissolved completely in the supercritical CO2.

[5] = Melting/cooling and vacuum sublimation of polymorph powders; assay type: physicochemical
Protocol: The polymorph B sample melted at ˜123° C. […] (FIG. 6B).

[6] = Polymorph stability under manufacturing processes; assay type: physicochemical; details: drying, milling, micronization, wet granulation, spray-drying, compaction
Excerpt: Various dissolution/crystallization conditions have been applied to try to convert polymorph B into polymorph A. As mentioned above, only with sophisticated procedures polymorph B could be fully converted into polymorph A (Example 4). Polymorphic forms of a drug substance can undergo phase conversion when exposed to a range of manufacturing processes, such as drying, milling, micronization, wet granulation, spray-drying, and compaction. Exposure to environmental conditions such as humidity and temperature can also induce polymorph conversion. Therefore, polymorph A is unstable and thus not suited for pharmaceutical processes, while polymorph B was stable under all these conditions including drying, milling, micronization, wet granulation, spray-drying, and compaction.

[7] = day 14 vs day -3, listed as polymorphic form B
[8] = day 14 vs day -3, listed as polymorphic form A

| Structure (SMILES) | polymorph conversion in formulation ([1]; initially introduced polymorph B, after 30 h in formulation) | polymorph conversion in formulation ([1]; sample initially made from polymorph B, regular intervals over several months) | PTS at some frequencies ([2]; 4 and 8 kHz (FIG. 14)) | level of improvement of the PTS ([2]; listed as polymorphic form B) | average PTS (threshold shift) in treated animals [2, 7] [dB] | average PTS reduction versus vehicle-treated controls [2, 7] [dB] | conversion of polymorph B into form A (XRPD) ([3]; 3-1: n-heptane, 100° C. for 1:45 h, then room temperature 15 hrs) | conversion of polymorph B into form A (XRPD) ([3]; 3-2: toluene, heated to 95° C., cooled to room temperature, not reproducible) | conversion of polymorph B into form A (XRPD) ([3]; 3-3: n-heptane, 110° C., reflux 5 hrs 18 min, cooled, stirred 16 hrs) | conversion of polymorph B into form A (XRPD) ([3]; 3-4: n-heptane, 108° C., seed crystals of polymorph A added, cooled to room temperature) | polymorph conversion in supercritical CO2 [4] | polymorph conversion in the melt (diffractometry) ([5]; depending on duration of the melting status) | polymorph conversion on vacuum sublimation ([5]; vacuum sublimation at 1-2 kPa) | stability under manufacturing processes [6] | conversion of polymorphic form A into polymorphic form B ([1]; 30 hours in poloxamer based formulation (phosphate buffer, non-ionic tenside), micronized) [%] | conversion of polymorphic form A into polymorphic form B ([1]; 48 hours in poloxamer based formulation, listed as polymorphic A) [%] | level of improvement of the PTS [2] | recovery of the PTS compared to vehicle treated animals ([2]; at 16 kHz) | average PTS (threshold shift) in treated animals [2, 8] [dB] | average PTS reduction versus vehicle-treated controls [2, 8] [dB] |
| --- | --- | --- | --- | --- | --- | --- | --- | --- | --- | --- | --- | --- | --- | --- | --- | --- | --- | --- | --- | --- |
| Cn1c2ccc(F)cc2c2ccncc21 [polymorph B, 6-fluoro-9-methyl-9H-β-carboline] | no conversion | no polymorph conversion | 0 | 23-39 dBs | 0.6 | 34.1 | did not reveal conversion into form A | some presence of polymorph A | unchanged polymorph B | unchanged polymorph B | polymorph A is obtained; also recorded: transformation happened of polymorph B into polymorph A | up to a complete conversion | complete conversion into white crystals of polymorph A | stable |  |  |  |  |  |  |
| Cn1c2ccc(F)cc2c2ccncc21 [polymorph A, 6-fluoro-9-methyl-9H-β-carboline] |  |  |  |  |  |  |  |  |  |  |  |  |  | unstable | 60 | 100 | 10-18 dBs | 10-18 dBs | 14.6 | 7.7 |
